ChEMBL document CHEMBL4480418, “Antibacterial activity of indolyl-quinolinium derivatives and study their mode of action” (Bioorg Med Chem, 2019)
Converted amounts (≈) assume the structure as drawn.

Key:
Type in all cases: functional
Staphylococcus aureus [1] = assay: Antimicrobial activity against penicillin-resistant Staphylococcus aureus ATCC 29213 measured after 18 hrs by broth microdilution method; settings: ATCC 29213, 18 h
Staphylococcus aureus [2] = assay: Antimicrobial activity against methicillin-resistant Staphylococcus aureus ATCC 43300 measured after 18 hrs by broth microdilution method; settings: ATCC 43300, 18 h
Escherichia coli [3] = assay: Antimicrobial activity against NDM1 beta -lactamse expressing Escherichia coli ATCC BAA-2469 measured after 18 hrs by broth microdilution method; settings: ATCC BAA-2469, 18 h
Enterococcus faecium [4] = assay: Antimicrobial activity against vancomycin-resistant Enterococcus faecium ATCC 700221 measured after 18 hrs by broth microdilution method; settings: ATCC 700221, 18 h
Pseudomonas aeruginosa = assay: Antimicrobial activity against multidrug-resistant Pseudomonas aeruginosa ATCC BAA-2108 measured after 18 hrs by broth microdilution method; settings: ATCC BAA-2108, 18 h
Enterococcus faecium [5] = assay: Antimicrobial activity against drug-susceptible Enterococcus faecium ATCC 49624 measured after 18 hrs by broth microdilution method; settings: ATCC 49624, 18 h
Enterobacter cloacae = assay: Antimicrobial activity against Ampc beta-lactamase expressing Enterobacter cloacae ATCC BAA-1143 measured after 18 hrs by broth microdilution method; settings: ATCC BAA-1143, 18 h
Klebsiella pneumoniae = assay: Antimicrobial activity against NDM1 beta-lactamase expressing Klebsiella pneumoniae ATCC BAA-2470 measured after 18 hrs by broth microdilution method; settings: ATCC BAA-2470, 18 h
Escherichia coli [6] = assay: Antimicrobial activity against Escherichia coli ATCC 25922 measured after 18 hrs by broth microdilution method; settings: ATCC 25922, 18 h
Bacillus subtilis = assay: Antibacterial activity against Bacillus subtilis 168 measured after 18 hrs by broth microdilution method; settings: subsp. subtilis str. 168, 18 h
Staphylococcus aureus [7] = assay: Antimicrobial activity against Staphylococcus aureus ATCC 25923 measured after 18 hrs by broth microdilution method; settings: ATCC 25923, 18 h
Staphylococcus aureus [8] = assay: Antimicrobial activity against methicillin-resistant Staphylococcus aureus ATCC BAA-41 measured after 18 hrs by broth microdilution method; settings: ATCC BAA-41, 18 h
Enterococcus faecalis = assay: Antimicrobial activity against Enterococcus faecalis ATCC 29212 measured after 18 hrs by broth microdilution method; settings: ATCC 29212, 18 h
Acinetobacter baumannii = assay: Antimicrobial activity against multidrug-resistant Acinetobacter baumannii ATCC 19606 measured after 18 hrs by broth microdilution method; settings: ATCC 19606 = CIP 70.34 = JCM 6841, 18 h
Staphylococcus aureus [9] = assay: Antimicrobial activity against penicillin-resistant Staphylococcus aureus ATCC 29213 assessed as ratio of MIC after and before 15 serial passages preincubated followed by replating and measured after 24 hrs

| Compound | MIC (Staphylococcus aureus [1]) | MIC (Staphylococcus aureus [2]) | MIC (Escherichia coli [3]) | MIC (Enterococcus faecium [4]) | MIC (Pseudomonas aeruginosa) | MIC (Enterococcus faecium [5]) | MIC (Enterobacter cloacae) | MIC (Klebsiella pneumoniae) | MIC (Escherichia coli [6]) | MIC (Bacillus subtilis) | MIC (Staphylococcus aureus [7]) | MIC (Staphylococcus aureus [8]) | MIC (Enterococcus faecalis) | MIC (Acinetobacter baumannii) | Ratio (Staphylococcus aureus [9]) |
| --- | --- | --- | --- | --- | --- | --- | --- | --- | --- | --- | --- | --- | --- | --- | --- |
| C[n+]1c(/C=C/c2c[nH]c3ccccc23)cc(NCCN2CCCC2)c2ccccc21.[I-] | 16 µg/mL | 64 µg/mL | 64 µg/mL | 64 µg/mL | > 64 µg/mL | 32 µg/mL | > 64 µg/mL | > 64 µg/mL | 64 µg/mL | 32 µg/mL | 16 µg/mL | 64 µg/mL | 64 µg/mL | > 64 µg/mL | – |
| CC1(C)S[C@@H]2[C@H](NC(=O)Cc3ccccc3)C(=O)N2[C@H]1C(=O)O [PENICILLIN G] | > 64 µg/mL | > 64 µg/mL | > 64 µg/mL | > 64 µg/mL | > 64 µg/mL | 0.25 µg/mL (≈ 0.748 µM) | > 64 µg/mL | > 64 µg/mL | 1 µg/mL (≈ 2.99 µM) | 32 µg/mL (≈ 95.7 µM) | < 0.125 µg/mL | > 64 µg/mL | 0.5 µg/mL (≈ 1.5 µM) | 64 µg/mL (≈ 191 µM) | – |
| CCn1cc(C(=O)O)c(=O)c2cc(F)c(N3CCNCC3)cc21 [NORFLOXACIN] | – | – | – | – | – | – | – | – | – | – | – | – | – | – | 500 |
| C[n+]1c(/C=C/c2cc3ccccc3[nH]2)ccc2ccccc21.[I-] | 32 µg/mL | 64 µg/mL | 64 µg/mL | 64 µg/mL | > 64 µg/mL | 32 µg/mL | > 64 µg/mL | > 64 µg/mL | 64 µg/mL | 32 µg/mL | 32 µg/mL | 32 µg/mL | 32 µg/mL | > 64 µg/mL | – |
| CCN(CC)CCNc1cc(/C=C/c2c[nH]c3ccccc23)[n+](C)c2ccccc12.[I-] | 16 µg/mL | 32 µg/mL | 64 µg/mL | 64 µg/mL | > 64 µg/mL | 32 µg/mL | > 64 µg/mL | > 64 µg/mL | 64 µg/mL | 16 µg/mL | 16 µg/mL | 32 µg/mL | 64 µg/mL | > 64 µg/mL | – |
| C[n+]1c(/C=C/c2c[nH]c3ccccc23)cc(N2CCOCC2)c2ccccc21.[I-] | 16 µg/mL | 32 µg/mL | > 64 µg/mL | 32 µg/mL | > 64 µg/mL | 16 µg/mL | > 64 µg/mL | > 64 µg/mL | 64 µg/mL | 16 µg/mL | 16 µg/mL | 32 µg/mL | 16 µg/mL | > 64 µg/mL | – |
| C[n+]1c(/C=C/c2cc3ccccc3[nH]2)cc(N2CCOCC2)c2ccccc21.[I-] | 16 µg/mL | 16 µg/mL | 64 µg/mL | 32 µg/mL | > 64 µg/mL | 16 µg/mL | > 64 µg/mL | > 64 µg/mL | 64 µg/mL | 8 µg/mL | 16 µg/mL | 16 µg/mL | 64 µg/mL | > 64 µg/mL | – |
| C[n+]1c(/C=C/c2cc3ccccc3[nH]2)cc(NCCN2CCCCC2)c2ccccc21.[I-] | 16 µg/mL | 32 µg/mL | 64 µg/mL | 32 µg/mL | > 64 µg/mL | 16 µg/mL | > 64 µg/mL | > 64 µg/mL | 32 µg/mL | 16 µg/mL | 16 µg/mL | 32 µg/mL | 64 µg/mL | 64 µg/mL | – |
| C[n+]1c(/C=C/c2c[nH]c3ccccc23)cc(NCCN2CCOCC2)c2ccccc21.[I-] | 32 µg/mL | 64 µg/mL | > 64 µg/mL | 64 µg/mL | > 64 µg/mL | 32 µg/mL | > 64 µg/mL | > 64 µg/mL | > 64 µg/mL | 64 µg/mL | 64 µg/mL | 64 µg/mL | 64 µg/mL | > 64 µg/mL | – |
| CCN(CC)CCNc1cc(/C=C/c2cc3ccccc3[nH]2)[n+](C)c2ccccc12.[I-] | 16 µg/mL | 64 µg/mL | 64 µg/mL | 64 µg/mL | > 64 µg/mL | 32 µg/mL | > 64 µg/mL | > 64 µg/mL | 64 µg/mL | 16 µg/mL | 16 µg/mL | 32 µg/mL | 64 µg/mL | > 64 µg/mL | – |
| C[n+]1c(/C=C/c2c[nH]c3ccccc23)cc(N2CCCC2)c2ccccc21.[I-] | 2 µg/mL | 16 µg/mL | 32 µg/mL | 8 µg/mL | > 64 µg/mL | 4 µg/mL | > 64 µg/mL | > 64 µg/mL | 32 µg/mL | 8 µg/mL | 4 µg/mL | 4 µg/mL | 16 µg/mL | 64 µg/mL | – |
| O=C(O)c1cn(C2CC2)c2cc(N3CCNCC3)c(F)cc2c1=O [CIPROFLOXACIN] | 2 µg/mL (≈ 6.04 µM) | 2 µg/mL (≈ 6.04 µM) | > 64 µg/mL | > 64 µg/mL | 64 µg/mL (≈ 193 µM) | 32 µg/mL (≈ 96.6 µM) | – | 64 µg/mL (≈ 193 µM) | < 0.125 µg/mL | 2 µg/mL (≈ 6.04 µM) | < 0.125 µg/mL | > 64 µg/mL | 4 µg/mL (≈ 12.1 µM) | 2 µg/mL (≈ 6.04 µM) | – |
| C[n+]1c(/C=C/c2c[nH]c3ccccc23)ccc2ccccc21.[I-] | 32 µg/mL | 32 µg/mL | > 64 µg/mL | 64 µg/mL | > 64 µg/mL | 32 µg/mL | > 64 µg/mL | > 64 µg/mL | > 64 µg/mL | 32 µg/mL | 32 µg/mL | 32 µg/mL | 32 µg/mL | > 64 µg/mL | – |
| C[n+]1c(/C=C/c2cc3ccccc3[nH]2)cc(N2CCCC2)c2ccccc21.[I-] | 2 µg/mL | 8 µg/mL | 32 µg/mL | 16 µg/mL | > 64 µg/mL | 8 µg/mL | > 64 µg/mL | > 64 µg/mL | 32 µg/mL | 8 µg/mL | 4 µg/mL | 8 µg/mL | 16 µg/mL | 64 µg/mL | – |
| CC1CCN(c2cc(/C=C/c3cc4ccccc4[nH]3)[n+](C)c3ccccc23)CC1.[I-] | 4 µg/mL | 8 µg/mL | 32 µg/mL | 8 µg/mL | > 64 µg/mL | 4 µg/mL | > 64 µg/mL | > 64 µg/mL | 32 µg/mL | 8 µg/mL | 4 µg/mL | 8 µg/mL | 8 µg/mL | > 64 µg/mL | – |
